Data set [1] concerns gross motor function. Kind of data set: Rotorod, mouse (Table 8). To be noted: in vivo, po, Table 8, mouse.
Data set [2] has as its system maximal electroshock seizure. Kind of data set: Maximal Electroshock Seizure (MES) rat model. The format is in vivo. As to conditions: po, 0.5 hour. On the procedure:
Male, Sprague-Dawley rats and CD-1 mice were used for all studies. All animals were allowed ad-lib access to food and water except during experiment. Animals were housed within an animal vivarium maintained under a 12 h light:dark cycle (lights on: 07:00 h), and all experiments were conducted in the animals light phase. For all experiments, animals were habituated to the vivarium for a minimum of 72 h before experimentation. The experimental procedures used in the present investigation were conducted under the Association for Assessment and Accreditation of Laboratory Animal Care (AAALAC) and the Canadian Council on Animal Care (CCAC) guidelines. All compounds were sonicated in 5% Tween 80® in saline or methylcellulose 0.5% (wgt/vol), using MC and sterile water and injected in a dose volume of 5 ml/kg or 10 ml/kg (rat), and 10 ml/kg (mouse). Drugs were administered by either the oral, intraperitoneal or intravenous route. Male Sprague-Dawley rats of body weight 80-100 g were used for these studies. Each experiment was conducted over 3 consecutive days. On day 1 and 2, each rat received a single electrical stimulus (150 mA, 0.2 s duration, 60 Hz) via corneal electrodes moistened with saline (Shock stimulator type 221: Harvard apparatus). […] Typically this reflected approximately 70-90% of the initial group. […] On the test day following a defined drug pretreatment period, rats received a maximal electroshock (150 mA, 0.2 s duration, 60 Hz) via corneal electrodes. Protection was defined as absence of a full tonic seizure within 10 s of stimulus delivery. Twenty minutes before the MES procedure, the animals were tested on a fixed speed rotorod (best score from 3 trials at 8 r.p.m, trial duration=60 s) to give an early assessment of drug effect on gross motor function.
In general terms: Protection in the maximal electroshock model is a classic sign of anticonvulsant action.

Data set [3] concerns gross motor function. Kind of data set: Fixed speed rotorod, rat (gross motor function). As to conditions: Sprague-Dawley, in vivo, po. How it is done:
On the test day following a defined drug pretreatment period, rats received a maximal electroshock (150 mA, 0.2 s duration, 60 Hz) via corneal electrodes. Protection was defined as absence of a full tonic seizure within 10 s of stimulus delivery. Twenty minutes before the MES procedure, the animals were tested on a fixed speed rotorod (best score from 3 trials at 8 r.p.m, trial duration=60 s) to give an early assessment of drug effect on gross motor function.
(The rotarod test checks motor coordination on a turning rod.)

A further data set concerns 6 Hz psychomotor seizure. Kind of data set: Mouse 6 Hz model. In kind it is in vivo. As to conditions: mice, ip, 0.5 hour, 32 mA. How it is done:
Male, Sprague-Dawley rats and CD-1 mice were used for all studies. All animals were allowed ad-lib access to food and water except during experiment. Animals were housed within an animal vivarium maintained under a 12 h light:dark cycle (lights on: 07:00 h), and all experiments were conducted in the animals light phase. For all experiments, animals were habituated to the vivarium for a minimum of 72 h before experimentation. The experimental procedures used in the present investigation were conducted under the Association for Assessment and Accreditation of Laboratory Animal Care (AAALAC) and the Canadian Council on Animal Care (CCAC) guidelines. All compounds were sonicated in 5% Tween 80® in saline or methylcellulose 0.5% (wgt/vol), using MC and sterile water and injected in a dose volume of 5 ml/kg or 10 ml/kg (rat), and 10 ml/kg (mouse). Drugs were administered by either the oral, intraperitoneal or intravenous route. […] Preliminary experiments established that these stimulus parameters elicited a psychomotor seizure, defined as the expression of at least one of the following behaviors: stun/immobility, forelimb clonus, straub tail, vibrissae tremor, lateral head movement in >95% of control animals. Protection was defined as complete absence of all the above behaviors within 20 s of stimulus delivery. The effective dose of compound necessary to protect against psychomotor seizures to 50% of controls (i.e. ED50) was determined by curve fitting program (Prism v.4.02).

The test system of data set [4] is fully kindled (stage 5) seizures, amygdala kindled rat. The experiment in a line: Amygdala kindled rat model. As to conditions: <60 mg/kg i.p. In kind it is in vivo. From the text: Amygdala kindling model is an animal model for complex partial seizures, which is the most common type of epilepsy in adults and is often drug resistant.

The structures appear in SMILES notation.

The text below walks through data of patent publication US10604476B2, “Fluorinated amide derivatives and their uses as therapeutic agents” (Trillium Therapeutics Inc., priority 2015, dated 2020).

On to `CN(CC(N)=O)c1cc(C(F)(F)F)cc(C(F)(F)F)c1` [I(A), 2-[(3,5-Bis-trifluoromethyl-phenyl)-methyl-amino]-acetamide], for which the ED50 (as a rule, the dose that gives a 50% effect, or the effect in half of the subjects) at 0.5 hour was more than 160 mg/kg in the data set with gross motor function [1] and more than 500 mg/kg in the data set on gross motor function [3]. Also, the 50% effective dose (ED50) in data set [2] came out at 48 ± 1.1 mg/kg; in the data set on 6 Hz psychomotor seizure, 62.5 ± 1 mg/kg.
For `NC(=O)C(F)(F)Oc1cc(Cl)cc(C(F)(F)F)c1` [Compound I(E), 2-[3-chloro-5-(trifluoromethyl)-phenoxy]-2,2-difluoro-acetamide], the “suppression of fully kindled (stage 5) seizures compared to vehicle controls” value in data set [4] is recorded as “dose related suppression”.
